Test results as given in patent publication US6362369B1, “Phthalic acid diamide derivatives fluorine-containing aniline compounds as starting material, agricultural and horticultural insecticides, and a method for application of the insecticides” (Nihon Nohyaku Co., Ltd., priority 1997, dated 2002).

System: diamondback moth (Plutella xylostella)
Experiment: Insecticidal effect on diamondback moth (Test Example 1)
Format: in vivo
Conditions: for Insecticidal effect, Test Example 1 / Insecticidal effect (Test Example 1), judged from mortality: diamondback moth; for Insecticidal effect on diamondback moth (Test Example 1), judged grade: mortality judged according to the criterion shown in Test Example 1; for Insecticidal effect (Test Example 1), judged from mortality: judged by the criterion of Test Example 1
Experimental: Insecticidal effect on diamondback moth (Plutella xylostella) Adult diamondback moths were released and allowed to oviposit on a Chinese cabbage seedling. […] After air-drying, it was allowed to stand in a room thermostated at 25° C. Six days after the immersion, the hatched insects were counted. The mortality was calculated according to the following equation and the insecticidal effect was judged according to the criterion shown below. The test was carried out with triplicate groups of 10 insects. [table]

[1] = judged by the mortality criterion of Test Example 1
[2] = mortality judged by criterion of Test Example 1

Compound: Cc1cc(Oc2cccc(C(F)(F)F)c2)ccc1NC(=O)c1cccc(I)c1C(=O)NC(C)C [compound 398]
- Insecticidal effect, Test Example 1 [1]: A (100)

Compound: Cc1cc(Br)ccc1NC(=O)c1cccc([N+](=O)[O-])c1C(=O)NCc1cccnc1 [compound 888]
- Insecticidal effect on diamondback moth (Test Example 1), judged grade: D (79-50)

Compound: Cc1cc(C(F)(F)C(F)(F)F)ccc1NC(=O)c1cccc(Cl)c1C(=O)NCCNc1ccccc1 [compound 1376]
- Insecticidal effect, Test Example 1 [2]: A (100)

Compound: Cc1cc(C(F)(F)C(F)(F)F)ccc1NC(=O)c1cccc(Cl)c1C(=O)NCCOc1ccc(Cl)cc1 [compound 1372]
- Insecticidal effect, Test Example 1 [2]: A (100)

Compound: CC(C)NC(=O)c1cccc(I)c1C(=O)Nc1ccc(C=C(Cl)C(F)(F)F)cc1 [compound 918]
- Insecticidal effect on diamondback moth (Test Example 1), judged grade: A (100)

Compound: CC(C)NC(=O)c1c(C(=O)Nc2c(Cl)cc(C(F)(F)F)cc2Cl)cccc1[N+](=O)[O-] [compound 662]
- Insecticidal effect on diamondback moth (Test Example 1), judged grade: A (100)

Compound: C=CCNC(=O)c1cccc(I)c1C(=O)Nc1ccc(C(F)(F)C(F)(F)F)cc1C [compound 988]
- Insecticidal effect, Test Example 1 [2]: A (100)

Compound: CCCCc1ccc(NC(=O)c2c(Cl)cccc2C(=O)NC(C)C)cc1 [compound 195]
- Insecticidal effect, Test Example 1 [1]: A (100)

Compound: Cc1c(NC(=O)c2cccc(Br)c2C(=O)NC(C)C)ccc(OC(F)F)c1C [compound 295]
- Insecticidal effect, Test Example 1 [1]: D (79-50)

Compound: Cc1cc(OC(F)F)ccc1NC(=O)c1c(I)cccc1C(=O)NC1CC1 [compound 1453]
- Insecticidal effect (Test Example 1), judged from mortality: A (100)

Compound: COC(=O)c1cccc(C(=O)NC(C)C)c1C(=O)Nc1ccc(Cl)cc1C [compound 802]
- Insecticidal effect on diamondback moth (Test Example 1), judged grade: D (79-50)

Compound: CC(C)NC(=O)c1c(F)cccc1C(=O)Nc1cc(Cl)c(OC(F)F)c(Cl)c1 [compound 506]
- Insecticidal effect on diamondback moth (Test Example 1), judged grade: A (100)

Compound: CCC(C)NC(=O)c1ccccc1C(=O)Nc1ccc(C(F)(F)F)cc1 (stereo not shown) [compound 835]
- Insecticidal effect on diamondback moth (Test Example 1), judged grade: A (100)

Compound: Cc1cc(Oc2c(F)c(F)c(F)c(F)c2F)ccc1NC(=O)c1ccccc1C(=O)NC(C)C [compound 73]
- Insecticidal effect, Test Example 1 [1]: A (100)

Compound: Cc1cc(OC(F)F)ccc1NC(=O)c1cccc([N+](=O)[O-])c1C(=O)N(C)C(C)C [compound 825]
- Insecticidal effect on diamondback moth (Test Example 1), judged grade: A (100)

Compound: CC(C)NC(=O)c1c(I)cccc1C(=O)Nc1ccc2nc(C(F)(F)C(F)(F)F)oc2c1 [compound 1180]
- Insecticidal effect, Test Example 1 [2]: A (100)

Compound: Cc1ccccc1CNC(=O)c1c(I)cccc1C(=O)Nc1ccc(OC(F)F)cc1C [compound 1434]
- Insecticidal effect, Test Example 1 [2]: A (100)

Compound: CSc1ccc(NC(=O)c2cccc([N+](=O)[O-])c2C(=O)NC(C)C)c(C)c1C [compound 720]
- Insecticidal effect on diamondback moth (Test Example 1), judged grade: A (100)

Compound: COc1cccc(NC(=O)c2cccc([N+](=O)[O-])c2C(=O)NC(C)C)c1 [compound 613]
- Insecticidal effect on diamondback moth (Test Example 1), judged grade: A (100)

Compound: CCc1ccc(Cl)c(CC)c1NC(=O)c1cccc(Cl)c1C(=O)NC(C)C [compound 924]
- Insecticidal effect on diamondback moth (Test Example 1), judged grade: A (100)

Compound: Cc1ccc(F)cc1NC(=O)c1ccc(Cl)cc1C(=O)NC(C)C [compound 179]
- Insecticidal effect, Test Example 1 [1]: A (100)

Compound: CC(C)NC(=O)c1c(Cl)cccc1C(=O)Nc1ccc(C=C(Br)Br)cc1 [compound 913]
- Insecticidal effect on diamondback moth (Test Example 1), judged grade: A (100)

Compound: Cc1cc(OC(F)(F)F)ccc1NC(=O)c1cc(F)c(F)cc1C(=O)NC(C)(C)C [compound 1288]
- Insecticidal effect, Test Example 1 [2]: A (100)

Compound: CC(C)NC(=O)c1ccc(Cl)cc1C(=O)Nc1cccc(Cl)c1Cl [compound 186]
- Insecticidal effect, Test Example 1 [1]: D (79-50)

Compound: Cc1cc(SC(C)C)ccc1NC(=O)c1cccc([N+](=O)[O-])c1C(=O)NC(C)C [compound 721]
- Insecticidal effect on diamondback moth (Test Example 1), judged grade: A (100)

Compound: Cc1cc(OC(F)(F)C(F)C(F)(F)F)ccc1NC(=O)c1c(C(=O)NC(C)C)cccc1[N+](=O)[O-] (stereo not shown) [compound 743]
- Insecticidal effect on diamondback moth (Test Example 1), judged grade: D (79-50)

Compound: CC(C)NC(=O)c1cccc(Cl)c1C(=O)Nc1ccc(OC(F)F)c(F)c1 [compound 233]
- Insecticidal effect, Test Example 1 [1]: A (100)

Compound: CCN(CC)C(=O)c1cccc([N+](=O)[O-])c1C(=O)Nc1ccc(OC(F)(F)F)cc1 [compound 1139]
- Insecticidal effect, Test Example 1 [2]: A (100)

Compound: Cc1cc(OC(F)(F)F)ccc1NC(=O)c1ccc(F)c(Cl)c1C(=O)NC(C)(C)C [compound 1260]
- Insecticidal effect, Test Example 1 [2]: A (100)

Compound: Cc1ccc(F)cc1NC(=O)c1cccc([N+](=O)[O-])c1C(=O)NCCCl [compound 861]
- Insecticidal effect on diamondback moth (Test Example 1), judged grade: A (100)

Compound: CC(C)NC(=O)c1c(Cl)cccc1C(=O)Nc1ccc(SCC(F)(F)F)cc1 [compound 101]
- Insecticidal effect, Test Example 1 [1]: A (100)

Compound: Cc1cc(C(F)(F)C(F)(F)F)ccc1NC(=O)c1c(Cl)cccc1C(=O)NCc1ccncc1 [compound 1395]
- Insecticidal effect, Test Example 1 [2]: A (100)

Compound: Cc1ccc(F)cc1NC(=O)c1cccc([N+](=O)[O-])c1C(=O)NCC1CC1 [compound 860]
- Insecticidal effect on diamondback moth (Test Example 1), judged grade: A (100)

Compound: CC(C)NC(=O)c1c(F)cccc1C(=O)Nc1ccc(SCC(F)(F)F)cc1 [compound 478]
- Insecticidal effect on diamondback moth (Test Example 1), judged grade: A (100)

Compound: Cc1ccc([N+](=O)[O-])cc1NC(=O)c1cccc([N+](=O)[O-])c1C(=O)NC(C)C [compound 708]
- Insecticidal effect on diamondback moth (Test Example 1), judged grade: D (79-50)

Compound: Cc1cc(-c2ccc(OC(F)(F)F)cc2)ccc1NC(=O)c1cccc(I)c1C(=O)NC(C)C [compound 1521]
- Insecticidal effect (Test Example 1), judged from mortality: A (100)

Compound: CCOc1cc(C(F)(C(F)(F)F)C(F)(F)F)ccc1NC(=O)c1cccc(I)c1C(=O)NC(C)(C)C [compound 1694]
- Insecticidal effect (Test Example 1), judged from mortality: A (100)

Compound: Cc1cc(Cl)ccc1NC(=O)c1cc(Cl)ccc1C(=O)NC(C)C [compound 190]
- Insecticidal effect, Test Example 1 [1]: A (100)

Compound: CC(C)NC(=O)c1c(C(=O)Nc2cccc(OC(C)C)c2)cccc1[N+](=O)[O-] [compound 615]
- Insecticidal effect on diamondback moth (Test Example 1), judged grade: A (100)

Compound: CC(C)NC(=O)c1cccc(F)c1C(=O)Nc1ccc(C(F)(F)C(F)(F)F)cc1F [compound 1515]
- Insecticidal effect (Test Example 1), judged from mortality: A (100)

Compound: CC(C)NC(=O)c1cccc(Cl)c1C(=O)Nc1ccc(Oc2ccc(C(F)(F)F)cc2Cl)cc1F [compound 904]
- Insecticidal effect on diamondback moth (Test Example 1), judged grade: A (100)

Compound: CC(C)NC(=O)c1ccccc1C(=O)Nc1cccc(SC(F)(F)F)c1 [compound 31]
- Insecticidal effect, Test Example 1 [1]: A (100)

Compound: Cc1cc(C(F)(F)C(F)(F)F)ccc1NC(=O)c1cccc(Cl)c1C(=O)NCCc1ccccc1Cl [compound 1356]
- Insecticidal effect, Test Example 1 [2]: A (100)

Compound: CC(C)N(C)C(=O)c1ccccc1C(=O)Nc1ccc(C(F)(F)F)cc1 [compound 824]
- Insecticidal effect on diamondback moth (Test Example 1), judged grade: A (100)

Compound: Cc1cc(OC(=C(C(F)(F)F)C(F)(F)F)C(F)(F)C(F)(F)F)ccc1NC(=O)c1cccc(Cl)c1C(=O)NC(C)C [compound 1291]
- Insecticidal effect, Test Example 1 [2]: A (100)

Compound: Cc1cc(OC(F)(F)F)ccc1NC(=O)c1ccc(F)c(F)c1C(=O)NC(C)C [compound 1283]
- Insecticidal effect, Test Example 1 [2]: A (100)

Compound: CC(C)NC(=O)c1ccccc1C(=O)Nc1cc(Cl)c(OC(F)F)c(Cl)c1 [compound 84]
- Insecticidal effect, Test Example 1 [1]: A (100)

Compound: CCC(C)NC(=O)c1cccc(Cl)c1C(=O)Nc1ccc(OC(F)F)cc1C (stereo not shown) [compound 837]
- Insecticidal effect on diamondback moth (Test Example 1), judged grade: A (100)

Compound: Cc1cc(OC(F)F)ccc1NC(=O)c1cccc([N+](=O)[O-])c1C(=O)NCC(C)C [compound 832]
- Insecticidal effect on diamondback moth (Test Example 1), judged grade: A (100)

Compound: Cc1cc(Cl)c(Cl)cc1NC(=O)c1cccc([N+](=O)[O-])c1C(=O)NC(C)C [compound 668]
- Insecticidal effect on diamondback moth (Test Example 1), judged grade: A (100)

Compound: Cc1cc(C)c(NC(=O)c2c(Br)cccc2C(=O)NC(C)C)c(C)c1 [compound 304]
- Insecticidal effect, Test Example 1 [1]: A (100)

Compound: CCOC(CNC(=O)c1c(C(=O)Nc2ccc(OC(F)F)cc2C)cccc1[N+](=O)[O-])OCC [compound 875]
- Insecticidal effect on diamondback moth (Test Example 1), judged grade: A (100)

Compound: COc1ccc(CNC(=O)c2cccc(Cl)c2C(=O)Nc2ccc(C(F)(F)C(F)(F)F)cc2C)cc1 [compound 1348]
- Insecticidal effect, Test Example 1 [2]: A (100)

Compound: CC(C)NC(=O)c1cccc(F)c1C(=O)Nc1ccc(SCC(F)(F)F)cc1 [compound 539]
- Insecticidal effect on diamondback moth (Test Example 1), judged grade: A (100)

Compound: COc1cccc(CNC(=O)c2cccc(Cl)c2C(=O)Nc2ccc(C(F)(F)C(F)(F)F)cc2C)c1 [compound 1346]
- Insecticidal effect, Test Example 1 [2]: A (100)

Compound: CC(C)NC(=O)c1cccc(Cl)c1C(=O)Nc1ccc(C=C(Br)Br)cc1 [compound 914]
- Insecticidal effect on diamondback moth (Test Example 1), judged grade: A (100)

Compound: CC(C)(C)NC(=O)c1c(I)cccc1C(=O)Nc1ccc2oc(C(F)(F)F)nc2c1Cl [compound 1683]
- Insecticidal effect (Test Example 1), judged from mortality: A (100)

Compound: CCN(CC)C(=O)c1c(I)cccc1C(=O)Nc1ccc2nc(C(F)(F)C(F)(F)F)oc2c1 [compound 1182]
- Insecticidal effect, Test Example 1 [2]: A (100)

Compound: CC(C)NC(=O)c1cccc(F)c1C(=O)Nc1cc(Cl)c(OC(F)F)c(Cl)c1 [compound 560]
- Insecticidal effect on diamondback moth (Test Example 1), judged grade: A (100)

Compound: CC(C)NC(=O)c1c(C(=O)Nc2ccc(Cl)cc2)cccc1[N+](=O)[O-] [compound 588]
- Insecticidal effect on diamondback moth (Test Example 1), judged grade: A (100)

Compound: CCCONC(=O)c1c(Cl)cccc1C(=O)Nc1ccc(C(F)(F)C(F)(F)F)cc1C [compound 1327]
- Insecticidal effect, Test Example 1 [2]: A (100)

Compound: Cc1cc(OC(F)(F)F)ccc1NC(=O)c1cc(I)ccc1C(=O)NC(C)C [compound 1247]
- Insecticidal effect, Test Example 1 [2]: C (89-80)

Compound: Cc1cc(Oc2cccc(C(F)(F)F)c2)ccc1NC(=O)c1ccccc1C(=O)NC(C)C [compound 74]
- Insecticidal effect, Test Example 1 [1]: A (100)

Compound: Cc1cc(C(F)(F)C(F)(F)F)ccc1NC(=O)c1c(Cl)cccc1C(=O)N[C@@H](CO)c1ccccc1 [compound 1443]
- Insecticidal effect (Test Example 1), judged from mortality: A (100)
